“Also recorded” adds a separate entry of the source.
Legend:
human moDCs = experiment: IL-6 secretion by human moDCs; assay type: cell-based; settings: human moDCs, 41.25 μM lipid with R848, compared with R848 + vehicle; FIG. 16
murine FLT3L-DCs = experiment: Murine bone marrow-derived FLT3L-DCs hyperactivation; assay type: cell-based, mice; settings: R848 alone vs R848 in combination with DGP; FIG. 4C
Procedure: Murine bone marrow-derived FLT3L-DCs generation. Leg femur and tibia were removed from mice, cut with scissors, and flushed into sterile tubes. Bone marrow suspension was treated with ACK for 1 minute, then passed through a 40 um cell strainer. Cells were counted and resuspended in media consisting of complete IMDM containing 10% FBS, penicillin and streptomycin, and supplements of L-glutamine and sodium pyruvate (I10). […] For each experiment, 5 mice are used to collect BM and to generate DCs.
Lipid preparation. […] Lipid stocks were then further diluted in PBS to treat cells.
Murine bone marrow-derived FLT3L-DCs hyperactivation. BMDCs were harvested on day 8 post differentiation, washed with PBS, and re-plated in FLT3L-containing I10 at a concentration of 1×10^5 cells/mL. Cells were primed with or without 1 μg/mL R848 (final) then treated with or without a hyperactivating lipid (or vehicle control). Forty-eight hours post stimulation, supernatants were collected for cytokine measurement. Viability was measured using the CellTiter-Glo assay (Promega) which measures ATP content from cells. Fifty microliters of CellTiter-Glo reagent were added to 50 μL of cells. Luminescence was quantified on a SpectraMax m5e plate reader using an integration time of 500 milliseconds. Viability data were set relative to control conditions where cells were treated with R848. IL-1β and TNFα cytokine were measured using sandwich ELISAs (Invitrogen).

FLT3L-DCs = experiment: Migration of injected FLT3L-DCs to skin draining lymph nodes; assay type: in vivo, mice; settings: DCs stimulated with R848 1 μg/mL and 41 uM lipid, injected SC, 24 hours; FIG. 5; listed as DGP
Procedure: Murine bone marrow-derived FLT3L-DCs hyperactivation for migration assays. BMDCs were harvested on day 8 post differentiation, washed with PBS, and re-plated in FLT3L-containing I10 at a concentration of 1×10^6 cells/mL. For DC hyperactivation, 500 μl of R848 was added at a final concentration of 1 μg/mL, and 500 μl of lipids (DGPC (Compound 1), DGP (Compound 2), DHC (Compound 7) or DHMC (Compound 8) or 22:0 lyso PC) prepared in 4% KP407 was diluted to a final concentration of 41 uM. Cells were incubated for 24 hours at 37° C. on a tube rotator. Twenty-four hours post-stimulation, cells were washed with PBS and stained with CFSE (1:1000) for 30 min at 37° C. in the dark. DCs were then counted and 1.10×10^6 cells were injected subcutaneously (SC) in 100 ul per mouse. 24 hours post-injection, the skin draining lymph nodes (dLN) were dissected. A single cell suspension was prepared, and cells were stained in PBS with Live Dead Fixable dye (ThermoFisher) for 20 min at 4° C. Cells were then washed again and stained for 20 min at 4° C. in MACS buffer (PBS with 1% FCS and 2 mM EDTA) containing the following fluorescently conjugated antibodies: anti-CD11c and anti-I-A/I-E (MHC-II). […] Data were analyzed using FlowJo software (Tree Star). […]

[1] = Serum chemokines and cytokines after SC injection; assay type: in vivo, mice; settings: SC injection; 2, 24 and 48 hours post injection; FIG. 49
Procedure: Lipid Preparation. […] Lipids were used for chemical injections or DC treatment within one hour of their preparation.
Subcutaneous (SC) Injection. Mice were placed under Isoflurane for a few min for anesthesia. Tubes containing the chemicals were vortexed for 30 seconds, then loaded with a 1 mL Sub-Q syringe.
Blood Collection. Mice were placed under Isoflurane for approximately 10 min for anesthesia. Using a 21G needle, mice were gently poked through the skin to the submandibular space to induce bleeding. Five-Six drops were collected in a mini collect K2EDTA blood collection tube. Blood samples were transported back to Corner Therapeutics lab on ice. The blood was then centrifuged at 1500×g for 5 min. After centrifugation, blood was collected into a 96-well round bottom plate and stored at −80° C.
Measurement of Serum Chemokines and Cytokines. Secreted cytokines were measured in the supernatant by cytokine bead array using the LEGENDplex™ Mouse Murine Proinflammatory Chemokine, Murine Cytokine Release Syndrome Legendplex and LEGENDplex™ Mouse Cytokine Panel 2 (Biolegend) according to the manufacturer's protocol. Data were collected using a Quanteon Novocyte flow cytometer and analyzed using the cloud-based software provided by Biolegend.

[2] = test system: myeloid cells in dLN and spleen; experiment: Myeloid cells in dLN and spleen after SC injection (flow cytometry); assay type: in vivo, mice
Excerpt: dLN Dissection and Dissociation. […] The dLN were then transported on ice to Corner Therapeutics labs. The dLN was then processed using a Miltenyi spleen dissociation kit according to manufacturer's protocol. In brief, the dLN from each mouse was transferred into the gentleMACS C Tube containing the enzyme mix. The dLN were then dissociated using the gentleMACS Program 37C_m_SDK_1. Cell suspensions were then collected and filtered through a 30 μm Pre-Separation Filter. Cells were counted using the Moxi automated counter, then resuspended in 400 ul of FACS buffer for cell staining.
Spleen Dissection and Dissociation. […] The spleen samples were then transported on ice to Corner Therapeutics labs. Spleen samples were then processed a Miltenyi spleen dissociation kit according to manufacturer's protocol. In brief, each spleen was transferred into the gentleMACS C Tube containing the enzyme mix. The spleens were then dissociated using the gentleMACS program 37C_m_SDK_1. ACK lysis was performed for 2 min. Cell suspensions were then collected and filtered through a 30 μm Pre-Separation Filter. Cells were counted using the Moxi automated counter, then resuspended in 400 ul of FACS buffer for cell staining.
Flow Cytometry. Single cell suspension from the draining lymph or spleen were resuspended in 100 μL PBS containing Live/Dead Violet (1:1000) and incubated for 20 min at 4° C. Cells were then washed and resuspend in 100 μL FACS buffer containing Fc block (1:100) for 10 min. For myeloid cell staining, cells were then resuspended in 100 μL of antibodies detailed in Table 13-1 to identify monocytes as CD11b^+ Ly6C^+F4/80^neg MHC^neglive cells, moDCs as CD11b^+ Ly6C^+F4/80^neg MHC^+ live cells, macrophages as F4/80^+ MHC^+CD24^neg live cells, and DCs as CD11c^+MHC-II^+ F4/80^neg live cells. Counter Bright counting beads were added before the acquisition of samples.

CCCCCCCCCCCCCCCCCCCCCCOC[C@@H](O)COP(=O)(O)O [Compound 2, 1-docosyl-sn-glycerol-3-phosphate]
IL-6 secretion (human moDCs): IL-6 was secreted at similar levels | TNFα secretion (murine FLT3L-DCs): comparable | DC migration from the skin to the dLN (FLT3L-DCs): significantly enhanced DC migration from the skin to the dLN; also recorded: migration activity was significantly higher than DGPC (Compound 1) | cytokine and chemokine release in the serum [1]: unable to induce any cytokine or chemokine release in the serum at any timepoint | absolute number of monocytes in the dLN ([2]; 4 hours post SC injection vs PBS, FIG. 50A): did not induce an increase in the absolute number of cells in the dLN at 4 hours | absolute number of moDCs in the dLN ([2]; 4 hours post SC injection vs PBS, FIG. 50B): did not induce an increase in the absolute number of moDCs in the dLN | CD69 MFI on myeloid cells in the dLN ([2]; 4 hours post SC injection vs PBS, FIG. 52A-D): did not induce CD69 upregulation on myeloid cells in the dLN | CD69 MFI on myeloid cells in the spleen ([2]; 4 hours post SC injection vs PBS, FIG. 53A-D): did not induce the upregulation of CD69 on myeloid cells in the spleen | CCR7 MFI on DCs in the dLN and spleen ([2]; 4 hours post SC injection, FIG. 54A-B): did not induce the upregulation of CCR7 | monocytes in the spleen ([2]; 48 hours post SC injection vs PBS, FIG. 51A): decreased the levels of monocytes in the spleen | abundance of macrophages and cDCs in the dLN ([2]; 48 hours post SC injection, FIG. 50C-D): did not increase

From patent publication US20260097111A1, “ETHER LIPIDS FOR HYPERACTIVATION OF MAMMALIAN DENDRITIC CELLS” (priority 2022, published 2026)
